Results taken from article PMC3563715 (Molecular pharmaceutics, 2013).
Where two headings read alike, the source gives them in different places.

Columns and labels:
[1] = system: collagen induced arthritis (CIA); experiment: Efficacy against collagen induced arthritis, subcutaneous treatment; type: in vivo, DBA/1J mice; conditions: 5.0 nmol/animal SC on day 22 and 34; between days 34 and 40
[2] = cited from earlier work
[3] = system: systemic arterial pressure; experiment: Systemic arterial pressure; type: in vivo, CIA mice; conditions: single IV injection, regardless of dose
[4] = system: collagen induced arthritis (CIA); type: in vivo, DBA/1J mice; conditions: single IV dose on day 22, observed to day 58, 6 mice/group

Vasoactive intestinal peptide [free VIP]
duration of disease suppression after cessation of treatment [1]: about a week | in vivo half-life [2]: few minutes | time to full recovery of SAP to the norm [3]: approximately one hour | paw thickness and clinical arthritis score ([4]; 0.5 nmol/animal): did not show any therapeutic efficacy | paw thickness and clinical arthritis score ([4]; 1.0 nmol/animal): did not show any therapeutic efficacy
